Experimental data from patent publication US20250122174A1 (Shenzhen Yuanli Shenwan Innovative Medicine Co., Ltd., priority 2022, published 2025).

Target: HPK1 (Homo sapiens (Human), UniProt Q92918)
Test: HPK1 Inhibition Assay (ADP-Glo kinase assay)
Assay type: biochemical
Conditions: ATP 10 μM
Summary of the method: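 ADP-Glo luminescence read-out after 1 h room-temperature kinase reaction with 10 μM ATP and 0.1 μg/ml MBP. Recombinant human HPK1 at 7.5 ng/μl; buffer 40 mM Tris pH 7.5, 20 mM MgCl2. Compounds serially diluted 5-fold over 10 points from 10 mM DMSO stock.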

Chain of HPK1 (Q92918 1-346 limits assumed): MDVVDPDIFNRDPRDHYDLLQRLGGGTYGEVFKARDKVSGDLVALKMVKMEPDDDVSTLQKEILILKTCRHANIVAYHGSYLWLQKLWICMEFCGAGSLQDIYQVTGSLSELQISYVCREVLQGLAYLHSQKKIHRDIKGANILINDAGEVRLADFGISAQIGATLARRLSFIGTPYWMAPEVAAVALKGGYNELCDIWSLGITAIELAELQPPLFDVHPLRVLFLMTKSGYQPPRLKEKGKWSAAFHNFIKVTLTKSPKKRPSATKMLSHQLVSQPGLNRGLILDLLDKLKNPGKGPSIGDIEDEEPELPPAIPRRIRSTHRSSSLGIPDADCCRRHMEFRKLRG

Row | SMILES | IC50
1 | Cc1nc2c(N3CCCC4(CNC4)C3)c(NC(=O)c3ccc(=O)n(-c4c(F)cccc4F)n3)ccc2n1C [Example 84, 1-(2,6-difluorophenyl)-N-(1,2-dimethyl-4-(2,6-diazaspiro[3.5]nonan-6-yl)-1H-benzo[d]imidazol-5-yl)-6-oxo-1,6-dihydropyridazine-3-carboxamide] | 100 to 1000 nM
2 | Cc1nc2c(N3CCC4(CNC4)C3)c(NC(=O)c3ccc(=O)n(-c4c(F)cccc4F)n3)ccc2n1C [Example 85, 1-(2,6-difluorophenyl)-N-(1,2-dimethyl-4-(2,6-diazaspiro[3.4]octan-6-yl)-1H-benzo[d]imidazol-5-yl)-6-oxo-1,6-dihydropyridazine-3-carboxamide] | < 100 nM
3 | Cc1nc2c(N(C)CC3CNC3)c(NC(=O)c3ccc(=O)n(-c4c(F)cccc4F)n3)ccc2n1C [Example 86, N-(4-((azetidin-3-ylmethyl)(methyl)amino)-1,2-dimethyl-1H-benzo[d]imidazol-5-yl)-1-(2,6-difluorophenyl)-6-oxo-1,6-dihydropyridazine-3-carboxamide] | 100 to 1000 nM
4 | Cn1ncc2c(N3C[C@@H]4C[C@H]3CN4)c(NC(=O)c3ccc(=O)n(-c4c(F)cccc4F)n3)ccc21 [Example 87, N-(4-((1S,4S)-2,5-diazabicyclo[2.2.1]heptan-2-yl)-1-methyl-1H-indazol-5-yl)-1-(2,6-difluorophenyl)-6-oxo-1,6-dihydropyridazine-3-carboxamide] | 100 to 1000 nM
5 | Cc1nc2c(N3CC[C@H](N)C3)c(NC(=O)c3ccc(=O)n(-c4c(F)cccc4F)n3)ccc2n1C1CCOCC1 [Example 88, (S)-N-(4-(3-aminopyrrolidin-1-yl)-2-methyl-1-(tetrahydro-2H-pyran-4-yl)-1H-benzo[d]imidazol-5-yl)-1-(2,6-difluorophenyl)-6-oxo-1,6-dihydropyridazine-3-carboxamide] | < 100 nM
6 | COCCn1c(C)nc2c(N3CC[C@H](N)C3)c(NC(=O)c3ccc(=O)n(-c4c(F)cccc4F)n3)ccc21 [Example 89, (S)-N-(4-(3-aminopyrrolidin-1-yl)-1-(2-methoxyethyl)-2-methyl-1H-benzo[d]imidazol-5-yl)-1-(2,6-difluorophenyl)-6-oxo-1,6-dihydropyridazine-3-carboxamide] | < 100 nM
7 | Cc1nc2c(N3CC[C@@](C)(N)C3)c(NC(=O)c3ccc(=O)n(-c4c(F)cccc4F)n3)ccc2n1C [Example 90, (R)-N-(4-(3-amino-3-methylpyrrolidin-1-yl)-1,2-dimethyl-1H-benzo[d]imidazol-5-yl)-1-(2,6-difluorophenyl)-6-oxo-1,6-dihydropyridazine-3-carboxamide] | < 100 nM
8 | Cc1nc2c(N3C[C@H](N)C4(CC4)C3)c(NC(=O)c3ccc(=O)n(-c4c(F)cccc4F)n3)ccc2n1C [Example 91, (R)-N-(4-(7-amino-5-azaspiro[2.4]heptan-5-yl)-1,2-dimethyl-1H-benzo[d]imidazol-5-yl)-1-(2,6-difluorophenyl)-6-oxo-1,6-dihydropyridazine-3-carboxamide] | < 100 nM
9 | Cc1nc2c(N3CC[C@@H](NC(=O)CN)C3)c(NC(=O)c3ccc(=O)n(-c4c(F)cccc4F)n3)ccc2n1C [Example 92, (R)-N-(4-(3-(2-aminoacetamido)pyrrolidin-1-yl)-1,2-dimethyl-1H-benzo[d]imidazol-5-yl)-1-(2,6-difluorophenyl)-6-oxo-1,6-dihydropyridazine-3-carboxamide] | < 100 nM
10 | Cc1nc2c(N3CCC[C@H]3CN)c(NC(=O)c3ccc(=O)n(-c4c(F)cccc4F)n3)ccc2n1C [Example 93, (S)-N-(4-(2-(aminomethyl)pyrrolidin-1-yl)-1,2-dimethyl-1H-benzo[d]imidazol-5-yl)-1-(2,6-difluorophenyl)-6-oxo-1,6-dihydropyridazine-3-carboxamide] | < 100 nM
11 | Cc1nc2c(N3C[C@H](N)C(F)(F)C3)c(NC(=O)c3ccc(=O)n(-c4c(F)cccc4F)n3)ccc2n1C [Example 94, (S)-N-(4-(4-amino-3,3-difluoropyrrolidin-1-yl)-1,2-dimethyl-1H-benzo[d]imidazol-5-yl)-1-(2,6-difluorophenyl)-6-oxo-1,6-dihydropyridazine-3-carboxamide] | < 100 nM
12 | Cc1nc2c(N3CCC(N)C(F)(F)C3)c(NC(=O)c3ccc(=O)n(-c4c(F)cccc4F)n3)ccc2n1C (centres unmarked) [Example 95, N-(4-(4-amino-3,3-difluoropiperidin-1-yl)-1,2-dimethyl-1H-benzo[d]imidazol-5-yl)-1-(2,6-difluorophenyl)-6-oxo-1,6-dihydropyridazine-3-carboxamide] | < 100 nM
13 | Cc1nc2c(N3CC(N)CC(F)(F)C3)c(NC(=O)c3ccc(=O)n(-c4c(F)cccc4F)n3)ccc2n1C (centres unmarked) [Example 96, N-(4-(5-amino-3,3-difluoropiperidin-1-yl)-1,2-dimethyl-1H-benzo[d]imidazol-5-yl)-1-(2,6-difluorophenyl)-6-oxo-1,6-dihydropyridazine-3-carboxamide] | < 100 nM
14 | Cn1c(C2CC2)nc2c(N3CC[C@H](N)C3)c(NC(=O)c3ccc(=O)n(-c4c(F)cccc4F)n3)ccc21 [Example 97, N-{4-[(35)-3-aminopyrrolidin-1-yl]-2-cyclopropyl-1-methyl-1,3-benzodiazol-5-yl}-1-(2,6-difluorophenyl)-6-oxopyridazine-3-carboxamide] | < 100 nM
15 | Cn1c(C(C)(C)C)nc2c(N3CC[C@H](N)C3)c(NC(=O)c3ccc(=O)n(-c4c(F)cccc4F)n3)ccc21 [Example 98, N-{4-[(3S)-3-aminopyrrolidin-1-yl]-2-tert-butyl-1-methyl-1,3-benzodiazol-5-yl}-1-(2,6-difluorophenyl)-6-oxopyridazine-3-carboxamide] | < 100 nM
16 | Cn1c(C(C)(C)C)nc2c(N3CC[C@@H](N)C3)c(NC(=O)c3ccc(=O)n(-c4c(F)cccc4F)n3)ccc21 [Example 99, (R)-N-(4-(3-aminopyrrolidin-1-yl)-2-(tert-butyl)-1-methyl-1H-benzo[d]imidazol-5-yl)-1-(2,6-difluorophenyl)-6-oxo-1,6-dihydropyridazine-3-carboxamide] | < 100 nM
17 | Cn1c(C(C)(C)C)nc2c(N3CC[C@@H](O)C3)c(NC(=O)c3ccc(=O)n(-c4c(F)cccc4F)n3)ccc21 [Example 102, (R)-N-(4-(2-tert-butyl)-4-(3-hydroxypyrrolidin-1-yl)-1-methyl-1H-benzo 112 midazolezol-5-yl)-1-(2,6-difluorophenyl)-6-oxo-1,6-dihydropyridazine-3-carboxamide] | < 100 nM
18 | Cn1c(C(C)(C)C)nc2c(N3CCC[C@H]3CN)c(NC(=O)c3ccc(=O)n(-c4c(F)cccc4F)n3)ccc21 [Example 103] | < 100 nM
19 | C[C@@H]1CN(c2c(NC(=O)c3ccc(=O)n(-c4c(F)cccc4F)n3)ccc3c2nc(C(C)(C)C)n3C)C[C@@H]1N [Example 104, N-(4-((3R,4R)-3-amino-4-methylpyrrolidin-1-yl)-2-(tert-butyl)-1-methyl-1H-benzo 112 midazolezol-5-yl)-1-(2,6-difluorophenyl)-6-oxo-1,6-dihydropyridazine-3-carboxamide] | < 100 nM
20 | Cn1c(C(C)(C)C)nc2c(N3CCC(N)(CO)C3)c(NC(=O)c3ccc(=O)n(-c4c(F)cccc4F)n3)ccc21 (centres unmarked) [Example 105, N-(4-(3-amino-3-(hydroxymethyl)pyrrolidin-1-yl)-2-(tert-butyl)-1-methyl-1H-benzo[d]imidazol-5-yl)-1-(2,6-difluorophenyl)-6-oxo-1,6-dihydropyridazine-3-carboxamide] | < 100 nM
